Assay results from patent publication US20060063759A1, “Tricyclic steroid hormone nuclear receptor modulators” (priority 2002, published 2006).

Assays:
glucocorticoid receptor = biological target: T1, glucocorticoid receptor (Homo sapiens, UniProt P04150); test: Glucocorticoid Receptor Binding Assay ([3H]-dexamethasone, A549 cell extract); details: [3H]-dexamethasone binding, read-out: GR Ki
T1 construct: containing 50-200 ug of A549 cell extract and 1.86 nM [^3H]-dexamethasone; host or cells: A549 human lung epithelial cells (sonicated cell extract)
T1 sequence (P04150 1-777): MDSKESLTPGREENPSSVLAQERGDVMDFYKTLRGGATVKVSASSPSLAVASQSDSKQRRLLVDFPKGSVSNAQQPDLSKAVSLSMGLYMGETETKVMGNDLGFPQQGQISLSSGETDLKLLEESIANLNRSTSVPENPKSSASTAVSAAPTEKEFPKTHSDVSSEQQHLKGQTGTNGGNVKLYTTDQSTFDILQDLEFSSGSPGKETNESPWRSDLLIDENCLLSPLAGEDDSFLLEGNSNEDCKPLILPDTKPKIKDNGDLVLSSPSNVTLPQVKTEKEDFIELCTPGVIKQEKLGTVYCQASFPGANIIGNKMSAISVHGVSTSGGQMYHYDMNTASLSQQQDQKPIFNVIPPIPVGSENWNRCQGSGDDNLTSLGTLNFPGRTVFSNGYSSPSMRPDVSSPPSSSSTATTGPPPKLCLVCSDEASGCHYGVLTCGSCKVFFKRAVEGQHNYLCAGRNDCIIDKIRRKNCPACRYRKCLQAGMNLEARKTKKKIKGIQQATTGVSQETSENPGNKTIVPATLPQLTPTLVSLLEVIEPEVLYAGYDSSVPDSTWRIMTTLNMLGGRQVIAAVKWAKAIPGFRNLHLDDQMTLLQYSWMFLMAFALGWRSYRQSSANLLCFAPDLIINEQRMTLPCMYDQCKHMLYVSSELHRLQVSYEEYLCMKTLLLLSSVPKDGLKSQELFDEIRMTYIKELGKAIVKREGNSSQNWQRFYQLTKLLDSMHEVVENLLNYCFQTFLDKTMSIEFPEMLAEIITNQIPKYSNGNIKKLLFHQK
In short: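 A549 cell extract (50–200 ug) incubated with 1.86 nM [3H]-dexamethasone and test compound for 16 h at 4 °C in Tris-HCl pH 7.2 buffer with glycerol and molybdate. Unbound radioligand removed by dextran-coated charcoal, then supernatant bound counts measured by scintillation.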

human MR = biological target: T2, human MR (Homo sapiens, UniProt P08235); test: Mineralocorticoid Receptor Binding Assay ([3H]-aldosterone); details: [3H]-aldosterone binding, human MR expressed in Sf9 cells; read-out: MR Ki
T2 construct: The full length human MR gene is cloned from a human kidney or human brain cDNA library; His tag from the pAcHLT vector (own knowledge); made in house; host or cells: Sf9 insect cells (baculovirus, pAcHLT transfer vector)
T2 sequence (P08235 1-984): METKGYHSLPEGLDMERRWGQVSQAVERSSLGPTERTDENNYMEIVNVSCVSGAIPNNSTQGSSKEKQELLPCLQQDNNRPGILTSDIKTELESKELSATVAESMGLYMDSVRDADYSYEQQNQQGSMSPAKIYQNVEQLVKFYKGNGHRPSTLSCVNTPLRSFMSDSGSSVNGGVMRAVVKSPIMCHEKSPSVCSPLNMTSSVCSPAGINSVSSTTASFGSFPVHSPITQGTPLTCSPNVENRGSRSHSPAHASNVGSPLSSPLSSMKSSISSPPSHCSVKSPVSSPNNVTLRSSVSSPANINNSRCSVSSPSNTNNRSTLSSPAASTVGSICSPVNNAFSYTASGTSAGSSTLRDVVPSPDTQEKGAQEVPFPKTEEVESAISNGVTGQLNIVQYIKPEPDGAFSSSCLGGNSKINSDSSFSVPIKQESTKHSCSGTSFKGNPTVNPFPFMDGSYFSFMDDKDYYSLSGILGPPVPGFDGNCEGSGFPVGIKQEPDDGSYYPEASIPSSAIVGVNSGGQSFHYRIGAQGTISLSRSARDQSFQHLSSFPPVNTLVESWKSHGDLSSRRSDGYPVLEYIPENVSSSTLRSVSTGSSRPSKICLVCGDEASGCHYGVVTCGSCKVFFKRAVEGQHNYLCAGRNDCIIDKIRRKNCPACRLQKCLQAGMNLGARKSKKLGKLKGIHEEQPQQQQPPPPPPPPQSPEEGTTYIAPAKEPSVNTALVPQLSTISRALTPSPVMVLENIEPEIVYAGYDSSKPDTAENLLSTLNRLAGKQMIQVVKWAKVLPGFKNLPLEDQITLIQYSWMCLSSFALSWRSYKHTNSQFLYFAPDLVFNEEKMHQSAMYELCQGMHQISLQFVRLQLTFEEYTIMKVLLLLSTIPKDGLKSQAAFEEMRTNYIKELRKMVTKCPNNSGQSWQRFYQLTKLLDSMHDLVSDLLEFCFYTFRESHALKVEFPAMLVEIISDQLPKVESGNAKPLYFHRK
In short: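 Lysate supernatant of Sf9 cells expressing full-length human MR (20-25 μg protein) was incubated with 0.5 nM [3H]-aldosterone and test compound in molybdate/Tris/phosphate/glycerol buffer, pH 7.5, ~16 h at 4 °C. Bound ligand was filtered and counted by scintillation; IC50 is the concentration halving [3H]-aldosterone binding.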

SMILES | Ki (glucocorticoid receptor) [nM] | Ki (human MR) [nM] | melting point [°C]
CNS(=O)(=O)c1cccc(C=C2c3ccccc3CCc3ccccc32)c1 [Example 1, 3-(10,11-Dihydro-dibenzo[a,d]cyclohepten-5-ylidenemethyl)-N-methyl-benzenesulfonamide] | < 500 | < 500 | 153.9
CNS(=O)(=O)c1cc(C)ccc1C=C1c2ccccc2CCc2ccccc21 [Example 2, 2-(10,11-Dihydro-dibenzo[a,d]cyclohepten-5-ylidenemethyl)-5,N-dimethyl-benzenesulfonamide] | < 500 | < 500 | 174.9
CNS(=O)(=O)c1ccccc1C=C1c2ccccc2CCc2ccccc21 [Example 4, 2-(10,11-Dihydro-dibenzo[a,d]cyclohepten-5-ylidenemethyl)-N-methyl-benzenesulfonamide] | < 1000 | < 500 | 149
CCCNS(=O)(=O)c1ccccc1C=C1c2ccccc2CCc2ccccc21 [Example 6, 2-(10,11-Dihydro-benzo[a,d]cyclohepten-5-ylidenemethyl)-N-propyl-benzenesulfonamide] | < 500 | < 500 | 155.6
CCCNS(=O)(=O)c1cc(C)ccc1C=C1c2ccccc2CCc2ccccc21 [Example 20, 2-(10,11-Dihydro-dibenzo[a,d]cyclohepten-5-ylidenemethyl)-5-methyl-N-propyl-benzenesulfonamide] | – | – | 149.8
Cc1ccc(C=C2c3ccccc3CCc3ccccc32)c(S(=O)(=O)N2CCOCC2)c1 [Example 22, 4-[2-(10,11-Dihydro-dibenzo[a,d]cyclohepten-5-ylidenemethyl)-5-methyl-benzenesulfonyl]-morpholine] | – | – | 157.2
Cc1ccc(C=C2c3ccccc3CCc3ccccc32)c(S(=O)(=O)NCC(F)(F)F)c1 [Example 23, 2-(10,11-Dihydro-dibenzo[a,d]cyclohepten-5-ylidenemethyl)-5-methyl-N-(2,2,2-trifluoro-ethyl)-benzenesulfonamide] | – | – | 100.7
NS(=O)(=O)c1cccc(C=C2c3ccccc3CCc3ccccc32)c1 [Example 24, 3-(10,11-Dihydro-dibenzo[a,d]cyclohepten-5-ylidenemethyl)-benzenesulfonamide] | – | – | 204
CN(C)S(=O)(=O)c1cccc(C=C2c3ccccc3CCc3ccccc32)c1 [Example 25, 3-(10,11-Dihydro-dibenzo[a,d]cyclohepten-5-ylidenemethyl)-N,N-dimethyl-benzenesulfonamide] | – | – | 167.3
CNS(=O)(=O)c1ccc(C=C2c3ccccc3CCc3ccccc32)cc1 [Example 27, 4-(10,11-Dihydro-dibenzo[a,d]cyclohepten-5-ylidenemethyl)-N-methyl-benzenesulfonamide] | < 1000 | < 500 | 189.7
Brc1cccc(C=C2c3ccccc3CCc3ccccc32)c1 [Example 28, 5-(3-Bromo-benzylidene)-10,11-dihydro-5H-dibenzo-[a,d]cycloheptene] | – | – | 104.7
Brc1ccccc1C=C1c2ccccc2CCc2ccccc21 [Example 29, 5-(2-Bromo-benzylidene)-10,11-dihydro-5H-dibenzo-[a,d]cycloheptene] | – | – | 122.7
COc1ccccc1C=C1c2ccccc2CCc2ccccc21 [Example 31, 5-(2-Methoxy-benzylidene)-10,11-dihydro-5H-dibenzo-[a,d]cycloheptene] | < 10000 | < 500 | 129.3
COc1cccc(C=C2c3ccccc3CCc3ccccc32)c1 [Example 32, 5-(3-Methoxy-benzylidene)-10,11-dibydro-5H-dibenzo-[a,d]cycloheptene] | < 1000 | < 500 | 83
COc1ccc(C=C2c3ccccc3CCc3ccccc32)cc1 [Example 33, 5-(4-Methoxy-benzylidene)-10,11-dihydro-5H-dibenzo-[a,d]cycloheptene] | – | – | 116.8
COc1ccc(C=C2c3ccccc3CCc3ccccc32)cc1Br [Example 34, 5-(3-Bromo-4-methoxy-benzylidene)-10,11-dihydro-5H-dibenzo[a,d]cycloheptene] | – | – | 140.7
COc1cccc(C=C2c3ccccc3CCc3ccccc32)c1OC [Example 35] | < 500 | < 500 | 130.6
COc1ccc(C=C2c3ccccc3CCc3ccccc32)cc1OC [Example 36, 5-(3,4-Dimethoxy-benzylidene)-10,11-dihydro-5H-dibenzo[a,d]cycloheptene] | – | – | 102.8
Nc1cc(C=C2c3ccccc3CCc3ccccc32)ccc1O [Example 63, 2-Amino-4-(10,11-dihydro-dibenzo[a,d]cyclohepten-5-ylidenemethyl)-phenol] | – | – | 158.8
FC(F)Oc1ccccc1C=C1c2ccccc2CCc2ccccc21 [Example 66, 5-(2-Difluoromethoxy-benzylidene)-10,11-dihydro-5H-dibenzo[a,d]cycloheptene] | – | – | 81.1
FC(F)Oc1ccc(C=C2c3ccccc3CCc3ccccc32)cc1 [Example 67, 5-(4-Difluoromethoxy-benzylidene)-10,11-dihydro-5H-dibenzo[a,d]cycloheptene] | – | – | 65.8
COc1ccc(C=C2c3ccccc3CCc3ccccc32)cc1N [Example 89, 5-(10,11-Dihydro-dibenzo[a,d]cyclohepten-5-ylidenemethyl)-2-methoxy-phenylamine] | – | – | 62.7
COc1ccc(C=C2c3ccccc3CCc3ccccc32)cc1NS(C)(=O)=O [Example 97, N-[5-(10,11-Dihydro-dibenzo[a,d]cyclohepten-5-ylidenemethyl)-2-methoxy-phenyl]-methanesulfonamide] | – | – | 192.1
CC(=O)Nc1ccccc1C=C1c2ccccc2CCc2ccccc21 [Example 115, N-[2-(10,11-Dihydro-dibenzo[a,d]cyclohepten-5-ylidenemethyl)-phenyl]-acetamide] | – | – | 189.7
CN(c1cccc(C=C2c3ccccc3CCc3ccccc32)c1)S(C)(=O)=O [Example 124, N-[3-(10,11-Dihydro-dibenzo[a,d]cyclohepten-5-ylidenemethyl)-phenyl]-N-methyl-methanesulfonamide] | – | – | 124.2
Cc1nc2c(o1)CCc1ccccc1/C2=C/c1cccc(NS(C)(=O)=O)c1 [Example 247, N-[3-(2-Methyl-9,10-dihydro-1-oxa-3-aza-benzo[f]azulen-4-ylidenemethyl)-phenyl]-methanesulfonamide] | – | – | 184.6
